{"source": "patent US6461638B1", "about": "“Laxative compositions and method for making same” (Techni-Pharma, priority 1996, dated 2002)", "test": "Effervescence measure by release of CO2, Bernard's calcimeter, water heated to 37° C.", "type": "physicochemical", "conditions": "acid compound mixed with Na bicarbonate", "description": "Effervescence Measure by Release of CO2\nWorking of the Bernard's calcimeter.\nThe assay consists in verifying the working of the equipment of the Bernard's calcimeter.\nA little modification has been made on the rubber stopper of the lateral neck by adding a tap. This addition is necessary until at time 0, the experiment begins with an inner pressure equal to the atmospheric pressure.\nIntroduce a saturated sodium chloride solution in the flask and the graduated tube\nAdjust the level of the graduated tube before starting the experiment\nLay on the magnetic heating stirrer the flask containing 100 ml of distilled water at 37° C.\nFill up the flask with a stopper previously fixed at the end of the releasing tube of CO2\nIntroduce the suppository in the flask without contact occurring between the suppository and the water\nVerify again the sodium chloride level in the graduated tube before turning off the tap of the side stopper\nTurn on the stirrer and drop the suppository, without forget to unlock the chronometer\nThus, it is necessary to heat the water until 37° C. Thus a magnetic heating stirrer has been used.", "data": [{"smiles": "O=C1CCC(=O)N1", "note": "[succinimide]", "values": [{"measurement": "CO2 release (in words)", "result": "only induces a reduced and delayed release"}]}]}
